We go through 27 molecules from PubChem BioAssay (NCI).

The structures appear in SMILES notation.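 Assay format: 96-well plates, 48-hour exposure. TGI: concentration producing complete growth inhibition.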 Some results are limits rather than exact numbers.

One assay deals with U251 CNS. Briefly: NCI anticancer screen, dose series, 48 h.
As for `Cc1c(/C=N\NC(=S)N2CCN(C(=S)N/N=C\c3c(C)n(C)n(-c4ccccc4)c3=O)CC2)c(=O)n(-c2ccccc2)n1C`, the TGI was greater than 100 µM.

In turn, `CCN(CC)CCn1c2cc3c(cc2c(=O)c2cccnc21)OCCO3` came in with a TGI greater than 10 µM.

In turn, `O=C(NS(=O)(=O)Nc1ccc(Cl)cc1)OCc1ccc(Cl)cc1Cl` yielded a TGI of 66.7 µM.

For another assay, the system named is HT29 colon. Description: NCI anticancer screen, dose series, 48 h.
The molecule `Nc1nc2ncc(SCc3ccc(C(=O)NC(CCC(=O)O)C(=O)O)cc3)cc2c(=O)[nH]1` (stereo not given) gave a TGI greater than 100 µM.

As for `COc1ccc2c(c1)c1c(n2CCN2CCOCC2)-c2ccccc2CC1`, the TGI is greater than 100 µM.

Take `Cc1cn(C2C=CC(COP(=O)(OCC3=CC(=O)c4ccccc4C3=O)N(C)CCCCCl)O2)c(=O)[nH]c1=O` (stereo not given): the TGI turned out to be 29.4 µM.

`OCC1CCCC(n2cnc3c(=S)nc[nH]c32)O1` (stereo not given): the TGI is greater than 100 µM.

`CC1(C)CC2(C)CC1CC2O` (stereo not given) gave a TGI greater than 100 µM.

With `Clc1cc(N/N=C(/c2ccccc2)c2ncccn2)ncn1`, the TGI was greater than 100 µM.

Turning to `O=C1CC2C=CC(O)C(C1)C2` (stereo not given), the TGI is greater than 100 µM.

As to `COC(=O)C1(Cc2ccccc2)Cc2cc3c(cc2C1=O)CCC3` (stereo not given), the TGI was determined as 36 µM.

Consider `CC(C)C(Sc1nc(-c2ccccc2)c(-c2ccccc2)[nH]1)C(=O)NNC(=S)Nc1ccccc1` (stereo not given), for which the TGI was determined as 36.8 µM.

The molecule `COC(=O)C1=C(C(=O)OC)C2OC1C1C2C2(C)C(C)=C(C)C1(C)S2=O` (stereo not given) registered a TGI greater than 49.9 µM.

On to `CCOC(=O)CCC(NC(=O)c1ccc(OCc2nc3cc(C(F)(F)F)ccc3nc2-c2ccccc2)cc1)C(=O)OCC` (stereo not given), for which the TGI was greater than 100 µM.

The molecule `CC12CC(c3ccccc3O1)C(C(=O)Nc1ccc(F)cc1)C(=O)N2` (stereo not given) showed a TGI greater than 100 µM.

The molecule `O=c1c2c3ccccc3[nH]c2c2cccc3c2n1CCC3` had a TGI greater than 100 µM.

Turning to `c1ccc([P+](CCNCCNCC[P+](c2ccccc2)(c2ccccc2)c2ccccc2)(c2ccccc2)c2ccccc2)cc1`, the TGI is greater than 100 µM.

With `COc1ccc2nc(-c3ccc(OCc4ccccc4)cc3)ccc2c1`, the TGI was greater than 100 µM.

`CCOc1ccc(N/C(=C(/C(Cl)=C(/Cl)NCCN)[N+](=O)[O-])n2nnc3ccccc32)cc1` had a TGI greater than 100 µM.

In turn, `COC1(C)CC2N(C(=O)c3ccccc3)N=C(c3ccccc3)CC2(C)O1` (stereo not given) registered a TGI greater than 100 µM.

`O=C1CC(C(O)CO)CC(=O)N1` (stereo not given): the TGI was greater than 100 µM.

Regarding `O=C(Cc1nc2ccc(C(=O)c3ccccc3)cc2[nH]c1=O)C(=O)Nc1ccc(Br)cc1`, the TGI is greater than 100 µM.

Molecule `Cc1ccccc1C1OC1C(=O)c1ccccc1N` (stereo not given) gave a TGI greater than 100 µM.

In turn, `Cc1cc(-c2nc3ccccc3s2)ccc1NS(=O)(=O)O` gave a TGI greater than 100 µM.

In turn, `COc1cc(COC(=O)N[C@H](C(=O)O)C(C)(C)C)c([N+](=O)[O-])cc1OC` had a TGI greater than 100 µM.

Molecule `Cc1c(/C=N\NC(=S)N2CCN(C(=S)N/N=C\c3c(C)n(C)n(-c4ccccc4)c3=O)CC2)c(=O)n(-c2ccccc2)n1C` yielded a TGI of 34.9 µM.

`CCN(CC)CCn1c2cc3c(cc2c(=O)c2cccnc21)OCCO3` yielded a TGI greater than 10 µM.

Molecule `O=C(NS(=O)(=O)Nc1ccc(Cl)cc1)OCc1ccc(Cl)cc1Cl` yielded a TGI of 51.2 µM.

The test system of the next assay is OVCAR-4 ovarian. Briefly: NCI anticancer screen, dose series, 48 h.
Molecule `Nc1nc2ncc(SCc3ccc(C(=O)NC(CCC(=O)O)C(=O)O)cc3)cc2c(=O)[nH]1` (stereo not given) displayed a TGI greater than 100 µM.

Regarding `COc1ccc2c(c1)c1c(n2CCN2CCOCC2)-c2ccccc2CC1`, the TGI was greater than 100 µM.

Take `CCOC(=O)c1cc(C2(O)CCN(Cc3ccccc3)C2=O)c(-c2cc(C)no2)[nH]1` (stereo not given): the TGI is greater than 100 µM.

In the case of `Cc1cn(C2C=CC(COP(=O)(OCC3=CC(=O)c4ccccc4C3=O)N(C)CCCCCl)O2)c(=O)[nH]c1=O` (stereo not given), the TGI turned out to be 23.2 µM.

Molecule `OCC1CCCC(n2cnc3c(=S)nc[nH]c32)O1` (stereo not given) yielded a TGI greater than 100 µM.

`CC1(C)CC2(C)CC1CC2O` (stereo not given): the TGI is greater than 100 µM.

The molecule `COc1ccc(/C(=C/n2ccnc2)C(=O)c2ccc(OC)c(OC)c2)cc1` had a TGI greater than 100 µM.

The molecule `Clc1cc(N/N=C(/c2ccccc2)c2ncccn2)ncn1` returned a TGI of 68 µM.

Take `O=C1CC2C=CC(O)C(C1)C2` (stereo not given): the TGI was greater than 100 µM.

`COC(=O)C1(Cc2ccccc2)Cc2cc3c(cc2C1=O)CCC3` (stereo not given) displayed a TGI greater than 100 µM.

In the case of `CC(C)C(Sc1nc(-c2ccccc2)c(-c2ccccc2)[nH]1)C(=O)NNC(=S)Nc1ccccc1` (stereo not given), the TGI came out at 79.2 µM.

`COC(=O)C1=C(C(=O)OC)C2OC1C1C2C2(C)C(C)=C(C)C1(C)S2=O` (stereo not given) returned a TGI of 24.6 µM.

`CCOC(=O)CCC(NC(=O)c1ccc(OCc2nc3cc(C(F)(F)F)ccc3nc2-c2ccccc2)cc1)C(=O)OCC` (stereo not given) returned a TGI of 38.4 µM.

On to `CC12CC(c3ccccc3O1)C(C(=O)Nc1ccc(F)cc1)C(=O)N2` (stereo not given), for which the TGI was greater than 100 µM.

`c1ccc([P+](CCNCCNCC[P+](c2ccccc2)(c2ccccc2)c2ccccc2)(c2ccccc2)c2ccccc2)cc1` yielded a TGI greater than 100 µM.

Take `COc1ccc2nc(-c3ccc(OCc4ccccc4)cc3)ccc2c1`: the TGI is greater than 100 µM.

Turning to `CCOc1ccc(N/C(=C(/C(Cl)=C(/Cl)NCCN)[N+](=O)[O-])n2nnc3ccccc32)cc1`, the TGI is greater than 100 µM.

Regarding `COC1(C)CC2N(C(=O)c3ccccc3)N=C(c3ccccc3)CC2(C)O1` (stereo not given), the TGI was greater than 100 µM.

`O=C(Cc1nc2ccc(C(=O)c3ccccc3)cc2[nH]c1=O)C(=O)Nc1ccc(Br)cc1`: the TGI is greater than 100 µM.

For `Cc1ccccc1C1OC1C(=O)c1ccccc1N` (stereo not given), the TGI is greater than 100 µM.

`Cc1cc(-c2nc3ccccc3s2)ccc1NS(=O)(=O)O` yielded a TGI greater than 100 µM.

Regarding `Cc1c(/C=N\NC(=S)N2CCN(C(=S)N/N=C\c3c(C)n(C)n(-c4ccccc4)c3=O)CC2)c(=O)n(-c2ccccc2)n1C`, the TGI is greater than 100 µM.

In turn, `CCN(CC)CCn1c2cc3c(cc2c(=O)c2cccnc21)OCCO3` registered a TGI greater than 10 µM.

`O=C(NS(=O)(=O)Nc1ccc(Cl)cc1)OCc1ccc(Cl)cc1Cl` yielded a TGI of 76.9 µM.

A further assay has as its system KM12 colon. Briefly: NCI anticancer screen, dose series, 48 h.
`Nc1nc2ncc(SCc3ccc(C(=O)NC(CCC(=O)O)C(=O)O)cc3)cc2c(=O)[nH]1` (stereo not given) registered a TGI greater than 100 µM.

For `COc1ccc2c(c1)c1c(n2CCN2CCOCC2)-c2ccccc2CC1`, the TGI was greater than 100 µM.

Consider `CCOC(=O)c1cc(C2(O)CCN(Cc3ccccc3)C2=O)c(-c2cc(C)no2)[nH]1` (stereo not given), for which the TGI was greater than 100 µM.

Turning to `Cc1cn(C2C=CC(COP(=O)(OCC3=CC(=O)c4ccccc4C3=O)N(C)CCCCCl)O2)c(=O)[nH]c1=O` (stereo not given), the TGI was determined as 28.7 µM.

`OCC1CCCC(n2cnc3c(=S)nc[nH]c32)O1` (stereo not given) had a TGI greater than 100 µM.

`CC1(C)CC2(C)CC1CC2O` (stereo not given) showed a TGI greater than 100 µM.

Molecule `COc1ccc(/C(=C/n2ccnc2)C(=O)c2ccc(OC)c(OC)c2)cc1` yielded a TGI greater than 100 µM.

As for `Clc1cc(N/N=C(/c2ccccc2)c2ncccn2)ncn1`, the TGI was greater than 100 µM.

For `O=C1CC2C=CC(O)C(C1)C2` (stereo not given), the TGI is greater than 100 µM.

Take `COC(=O)C1(Cc2ccccc2)Cc2cc3c(cc2C1=O)CCC3` (stereo not given): the TGI worked out at 81.6 µM.

For `CC(C)C(Sc1nc(-c2ccccc2)c(-c2ccccc2)[nH]1)C(=O)NNC(=S)Nc1ccccc1` (stereo not given), the TGI worked out at 28.9 µM.

Turning to `COC(=O)C1=C(C(=O)OC)C2OC1C1C2C2(C)C(C)=C(C)C1(C)S2=O` (stereo not given), the TGI turned out to be 45.4 µM.

Consider `CCOC(=O)CCC(NC(=O)c1ccc(OCc2nc3cc(C(F)(F)F)ccc3nc2-c2ccccc2)cc1)C(=O)OCC` (stereo not given), for which the TGI is greater than 100 µM.
